Several values for one entry are separate records, joined by “and”; a condition that tells them apart may be missing. Equal entries are not always repeated. Where two headings read alike, the source gives them in different places.
Experiments:
[1] = Atogepant-rifampin drug interaction study: atogepant plasma PK; assay type: in vivo, human; conditions: for Tmax: read-out: Tmax (median); for Vd/F: read-out: Vz/F
Method: The study consisted of a Screening Visit, two study periods, an end-of-treatment (EOT) visit, and a follow-up visit. […] [table] […] Relative to the time that atogepant was administered, blood samples for atogepant plasma PK were to be collected at the following times: • Days 1 and 12: 0 hour (predose) and at 0.5, 1, 1.5, 2, 3, 4, 6, 8, 12, 16, 24, 36, and 48 hours post dose. • Day 7: 0 hour (predose) and at 0.5, 1, 1.5, 2, 3, 4, 6, 8, 12, 16, and 24 hours postdose

[2] = system: patients with episodic migraine; test: Study 2 (NCT02848326): preventive treatment of episodic migraine, efficacy; assay type: in vivo, human
Method: The studies enrolled patients with at least a 1-year history of migraine with or without aura, according to the International Classification of Headache Disorders (ICHD-3) diagnostic criteria. In Study 1 (NCT03777059), 910 patients were randomized 1:1:1:1 to receive atogepant 10 mg (N=222), atogepant 30 mg (N=230), atogepant 60 mg (N=235), or placebo (N=223), once daily for 12 weeks. In Study 2 (NCT02848326), 652 patients were randomized 1:2:2:2 to receive atogepant 10 mg (N=94), atogepant 30 mg (N=185), atogepant 60 mg (N=187), or placebo (N=186), once daily for 12 weeks. In both studies, patients were allowed to use acute headache treatments (i.e., triptans, ergotamine derivatives, NSAIDs, acetaminophen, and opioids) as needed. The use of a concomitant medication that acts on the CGRP pathway was not permitted for either acute or preventive treatment of migraine. The studies excluded patients with myocardial infarction, stroke, or transient ischemic attacks within six months prior to screening. The primary efficacy endpoint was the change from baseline in mean monthly migraine days across the 12-week treatment period.

[3] = Clinical pharmacokinetics of atogepant after oral administration (summary); assay type: in vivo, human
BCRP = BCRP (Homo sapiens, UniProt Q9UNQ0); test: Transporter substrate; assay type: in vitro ADME
P-gp = P-gp (Homo sapiens, UniProt P08183); test: Transporter inhibition; assay type: in vitro ADME; conditions: clinically relevant concentrations
OATP1B3 = OATP1B3 (Homo sapiens, UniProt Q9NPD5); test: Transporter inhibition; assay type: in vitro ADME
[4] = Treatment A: atogepant 60 mg alone
[5] = Treatment B1 (single-dose rifampin) / Treatment A
[6] = Treatment B2 (multi-dose rifampin) / Treatment A
[7] = Treatment B2: atogepant 60 mg + multiple-dose rifampin 600 mg
[8] = atogepant 60 mg + multiple-dose rifampin 600 mg (strong CYP3A4 inducer) vs atogepant alone
[9] = atogepant 60 mg + single-dose rifampin 600 mg (OATP inhibitor) vs atogepant alone
[10] = both sexes, human, plasma, oral, 60 mg, Treatment A: atogepant 60 mg alone
[11] = both sexes, human, plasma, oral, Treatment B2: atogepant 60 mg + multiple-dose rifampin 600 mg
[12] = Study 2, atogepant 10 mg once daily
[13] = Study 2, atogepant 30 mg once daily
[14] = Study 2, atogepant 60 mg once daily

Chain of BCRP (Q9UNQ0 whole entry): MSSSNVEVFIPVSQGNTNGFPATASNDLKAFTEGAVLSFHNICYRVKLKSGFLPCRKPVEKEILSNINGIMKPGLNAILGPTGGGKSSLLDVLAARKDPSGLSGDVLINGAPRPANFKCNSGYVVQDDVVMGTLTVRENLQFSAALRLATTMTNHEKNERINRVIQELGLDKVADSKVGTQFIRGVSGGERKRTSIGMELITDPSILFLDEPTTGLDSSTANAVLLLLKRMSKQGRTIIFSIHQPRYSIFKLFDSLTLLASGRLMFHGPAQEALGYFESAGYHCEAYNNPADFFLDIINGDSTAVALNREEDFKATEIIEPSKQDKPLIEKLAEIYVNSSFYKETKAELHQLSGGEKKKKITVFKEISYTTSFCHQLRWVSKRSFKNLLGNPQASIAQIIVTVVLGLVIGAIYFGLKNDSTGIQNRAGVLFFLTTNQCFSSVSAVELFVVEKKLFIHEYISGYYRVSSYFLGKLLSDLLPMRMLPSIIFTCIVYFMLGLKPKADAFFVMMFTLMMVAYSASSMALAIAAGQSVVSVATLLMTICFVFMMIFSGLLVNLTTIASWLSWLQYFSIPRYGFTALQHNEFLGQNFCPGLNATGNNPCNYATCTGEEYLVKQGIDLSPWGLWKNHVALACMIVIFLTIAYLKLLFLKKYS
Chain of P-gp (P08183 whole entry): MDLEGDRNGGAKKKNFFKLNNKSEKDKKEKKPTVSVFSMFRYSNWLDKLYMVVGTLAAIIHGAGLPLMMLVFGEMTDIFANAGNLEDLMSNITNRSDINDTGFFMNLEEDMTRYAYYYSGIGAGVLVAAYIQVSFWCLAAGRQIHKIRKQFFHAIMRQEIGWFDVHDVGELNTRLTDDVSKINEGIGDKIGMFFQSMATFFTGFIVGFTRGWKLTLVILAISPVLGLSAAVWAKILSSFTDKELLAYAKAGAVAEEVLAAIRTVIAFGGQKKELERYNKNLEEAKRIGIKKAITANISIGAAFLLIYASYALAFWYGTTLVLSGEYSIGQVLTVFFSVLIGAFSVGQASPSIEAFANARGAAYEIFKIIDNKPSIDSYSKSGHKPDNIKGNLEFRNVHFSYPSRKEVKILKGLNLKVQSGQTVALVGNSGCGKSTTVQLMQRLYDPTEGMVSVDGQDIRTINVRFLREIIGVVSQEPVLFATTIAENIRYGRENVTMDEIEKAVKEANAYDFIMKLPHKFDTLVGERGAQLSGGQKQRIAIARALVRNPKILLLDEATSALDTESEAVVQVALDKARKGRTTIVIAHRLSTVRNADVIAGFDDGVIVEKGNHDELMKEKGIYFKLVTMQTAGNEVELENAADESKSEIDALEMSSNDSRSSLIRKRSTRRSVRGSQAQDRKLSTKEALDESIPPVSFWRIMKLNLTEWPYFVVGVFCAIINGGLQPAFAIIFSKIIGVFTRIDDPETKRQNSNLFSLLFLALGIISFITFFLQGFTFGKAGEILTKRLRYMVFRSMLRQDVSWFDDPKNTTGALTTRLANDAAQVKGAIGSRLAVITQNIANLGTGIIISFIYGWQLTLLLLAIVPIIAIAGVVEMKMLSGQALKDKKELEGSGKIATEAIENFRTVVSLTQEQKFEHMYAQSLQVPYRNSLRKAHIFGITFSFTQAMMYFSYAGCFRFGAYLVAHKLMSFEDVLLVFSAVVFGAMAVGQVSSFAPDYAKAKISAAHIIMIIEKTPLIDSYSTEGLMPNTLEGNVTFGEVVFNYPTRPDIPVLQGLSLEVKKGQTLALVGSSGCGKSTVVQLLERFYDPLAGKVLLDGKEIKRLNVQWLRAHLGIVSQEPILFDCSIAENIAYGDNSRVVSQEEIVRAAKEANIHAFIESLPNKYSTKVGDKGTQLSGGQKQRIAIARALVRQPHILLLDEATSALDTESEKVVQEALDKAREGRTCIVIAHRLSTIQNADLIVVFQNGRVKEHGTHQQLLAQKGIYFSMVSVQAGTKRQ
Chain of OATP1B3 (Q9NPD5 whole entry): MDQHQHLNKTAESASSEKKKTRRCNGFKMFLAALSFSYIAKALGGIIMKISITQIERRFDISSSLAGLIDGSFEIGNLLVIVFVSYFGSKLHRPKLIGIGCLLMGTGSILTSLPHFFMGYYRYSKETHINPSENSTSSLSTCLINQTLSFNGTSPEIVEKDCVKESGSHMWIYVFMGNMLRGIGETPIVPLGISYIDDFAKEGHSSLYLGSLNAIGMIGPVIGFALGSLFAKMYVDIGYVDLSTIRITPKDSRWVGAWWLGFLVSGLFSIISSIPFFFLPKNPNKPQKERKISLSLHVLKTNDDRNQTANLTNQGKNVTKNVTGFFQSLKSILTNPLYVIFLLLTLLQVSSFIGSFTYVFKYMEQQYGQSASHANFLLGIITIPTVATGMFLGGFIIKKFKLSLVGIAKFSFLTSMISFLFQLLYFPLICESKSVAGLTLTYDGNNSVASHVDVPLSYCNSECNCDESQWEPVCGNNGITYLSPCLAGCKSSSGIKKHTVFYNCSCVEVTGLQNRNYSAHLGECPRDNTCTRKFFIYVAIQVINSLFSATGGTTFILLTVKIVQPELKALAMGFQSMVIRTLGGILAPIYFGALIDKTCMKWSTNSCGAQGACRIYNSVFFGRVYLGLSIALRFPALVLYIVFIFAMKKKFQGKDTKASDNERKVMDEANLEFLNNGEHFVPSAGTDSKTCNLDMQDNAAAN

With `C[C@@H]1[C@H](c2c(F)ccc(F)c2F)C[C@H](NC(=O)c2cnc3c(c2)C[C@@]2(C3)C(=O)Nc3ncccc32)C(=O)N1CC(F)(F)F` [atogepant, (3′S)-N-[(3S,5S,6R)-6-methyl-2-oxo-1-(2,2,2-trifluoroethyl)-5-(2,3,6-trifluorophenyl)piperidin-3-yl]-2′-oxo-1′,2′,5,7-tetrahydrospiro[cyclopenta[b]pyridine-6,3′-pyrrolo[2,3-b]pyridine]-3-carboxamide] the CL/F [1, 4] was 22.8 L/h, the λz [1, 4] was 0.0778 h⁻¹ and the “AUC0-24 Ratio of Geometric Means Test/Ref” value [1, 5] was 284.84%. The “Cmax Ratio of Geometric Means Test/Ref” value [1, 5] was 222.65%, the “AUC0-t Ratio of Geometric Means Test/Ref” value [1, 6] was 40.46% and the “AUC0-∞ Ratio of Geometric Means Test/Ref” value [1, 6] was 38.85%. The “Cmax Ratio of Geometric Means Test/Ref” value [1, 6] was 70.06%, the CL/F [1, 7] was 58.3 L/h and 58.3^b L/h and the λz [1, 7] was 0.325^b 1/h. For the same molecule, the “reduction of atogepant AUC0-t (AUC)” value [1, 8] was 60%, the “reduction of atogepant Cmax” value [1, 8] was 30% and the “reduction of atogepant AUC0-∞” value ([1]; atogepant 60 mg + multiple-dose rifampin 600 mg vs atogepant alone) was 61%. The “increase in atogepant AUC0-24” value [1, 9] was 2.85 fold, the “increase in atogepant Cmax” value [1, 9] was 2.23 fold and the half-life [1, 10] was 11.4 h. For the same molecule, the AUC(0-t) ([1]; both sexes, human, plasma, oral, 60 mg, Treatment A: atogepant 60 mg alone, read-out: AUC0-24) was 2870 ng·h/mL, the AUC(0-t) ([1]; both sexes, human, plasma, oral, 60 mg, Treatment A: atogepant 60 mg alone, read-out: AUC0-24 Geometric LSM, Reference) was 2680 ng·h/mL and the AUC(0-t) ([1]; both sexes, human, plasma, oral, 60 mg, Treatment A: atogepant 60 mg alone, read-out: AUC0-t) was 2960 ng·h/mL. It also gave an AUC(0-t) ([1]; both sexes, human, plasma, oral, 60 mg, Treatment A: atogepant 60 mg alone, read-out: AUC0-t Geometric LSM, Reference) of 2770 ng·h/mL, an AUC(0-inf) ([1]; both sexes, human, plasma, oral, 60 mg, Treatment A: atogepant 60 mg alone, read-out: AUC0-∞) of 3000 ng·h/mL and an AUC(0-inf) ([1]; both sexes, human, plasma, oral, 60 mg, Treatment A: atogepant 60 mg alone, read-out: AUC0-∞ Geometric LSM, Reference) of 2810 ng·h/mL. For the same molecule, the Cmax ([1]; both sexes, human, plasma, oral, 60 mg, Treatment A: atogepant 60 mg alone, read-out: Cmax) was 711 ng/mL, the Cmax ([1]; both sexes, human, plasma, oral, 60 mg, Treatment A: atogepant 60 mg alone, read-out: Cmax Geometric LSM, Reference) was 649 ng/mL and the Tmax [1, 10] was 1.5 h. It also gave an AUC(0-t) ([1]; both sexes, human, plasma, oral, Treatment B1: atogepant 60 mg + single-dose rifampin 600 mg, read-out: AUC0-24) of 8130 ng·h/mL, an AUC(0-t) ([1]; both sexes, human, plasma, oral, Treatment B1: atogepant 60 mg + single-dose rifampin 600 mg, read-out: AUC0-24 Geometric LSM, Test) of 7630 ng·h/mL and a Cmax ([1]; both sexes, human, plasma, oral, Treatment B1: atogepant 60 mg + single-dose rifampin 600 mg, read-out: Cmax) of 1550 ng/mL. For the same molecule, the Cmax ([1]; both sexes, human, plasma, oral, Treatment B1: atogepant 60 mg + single-dose rifampin 600 mg, read-out: Cmax Geometric LSM, Test) was 1440 ng/mL, the Tmax ([1]; both sexes, human, plasma, oral, Treatment B1: atogepant 60 mg + single-dose rifampin 600 mg) was 2 h and the half-life [1, 11] was 2.39 h. The AUC(0-t) ([1]; both sexes, human, plasma, oral, Treatment B2: atogepant 60 mg + multiple-dose rifampin 600 mg, read-out: AUC0-t) was 1180 ng·h/mL, the AUC(0-t) ([1]; both sexes, human, plasma, oral, Treatment B2: atogepant 60 mg + multiple-dose rifampin 600 mg, read-out: AUC0-t Geometric LSM, Test) was 1120 ng·h/mL and the AUC(0-inf) ([1]; both sexes, human, plasma, oral, Treatment B2: atogepant 60 mg + multiple-dose rifampin 600 mg, read-out: AUC0-∞) was 1130 ng·h/mL. The AUC(0-inf) ([1]; both sexes, human, plasma, oral, Treatment B2: atogepant 60 mg + multiple-dose rifampin 600 mg, read-out: AUC0-∞ Geometric LSM, Test) was 1090 ng·h/mL, the Cmax ([1]; both sexes, human, plasma, oral, Treatment B2: atogepant 60 mg + multiple-dose rifampin 600 mg, read-out: Cmax) was 487 ng/mL and the Cmax ([1]; both sexes, human, plasma, oral, Treatment B2: atogepant 60 mg + multiple-dose rifampin 600 mg, read-out: Cmax Geometric LSM, Test) was 454 ng/mL. It also gave a Tmax [1, 11] of 1.5 h, a Vd/F [1, 11] of 197 L and a reduction in mean apparent half-life ([1]; both sexes, human, plasma, oral, atogepant + multiple dose rifampin vs atogepant alone, read-out: reduction of mean apparent T1/2 (converted)) of ~9 h. For the same molecule, the Vd/F ([1]; both sexes, human, plasma, oral, Treatment A: atogepant 60 mg alone) was 390 L, the “Monthly Headache Days across 12 weeks, difference from placebo” value [2, 12] was −1.4 and the “Monthly Headache Days across 12 weeks, mean change from baseline” value [2, 12] was −4.3. The “Monthly Migraine Days (MMD) across 12 weeks, difference from placebo” value (“Monthly Migraine Days … difference from placebo” for short) [2, 12] was −1.1, the “Monthly Migraine Days (MMD) across 12 weeks, mean change from baseline” value [2, 12] was −4.0 and the “Monthly Headache Days across 12 weeks, difference from placebo” value [2, 13] was −1.2. For the same molecule, the “Monthly Headache Days across 12 weeks, mean change from baseline” value [2, 13] was −4.2, the “Monthly Migraine Days … difference from placebo” value [2, 13] was −0.9 and the “Monthly Migraine Days (MMD) across 12 weeks, mean change from baseline” value [2, 13] was −3.8. The “Monthly Headache Days across 12 weeks, difference from placebo” value [2, 14] was −0.9, the “Monthly Headache Days across 12 weeks, mean change from baseline” value [2, 14] was −3.9 and the “Monthly Migraine Days … difference from placebo” value [2, 14] was −0.7. The “Monthly Migraine Days (MMD) across 12 weeks, mean change from baseline” value [2, 14] was −3.6, the “mean apparent oral clearance (CL/F)” value ([3]; human, in vivo, po) was “approximately 19 L/hr” and the half-life ([3]; human, plasma, oral, read-out: elimination half-life (converted)) was ~11 h. The Vd/F ([3]; human, plasma, after oral administration, read-out: mean apparent volume distribution (Vz/F)) was ~282 L, the accumulation ([3]; once daily dosing) was “no accumulation” and the dose proportionality ([3]; once daily dosing) was “dose-proportional pharmacokinetics up to 170 mg”. The “substrate of BCRP” value (BCRP) was “substrate”, the “inhibition of P-gp” value (P-gp) was “not an inhibitor” and the “inhibition of OATP1B3” value (OATP1B3) was “weak inhibitor”.
